Data reported in patent US9044453B2, “Long-acting injectable moxidectin formulations and novel moxidectin crystal forms” (MERIAL, INC., priority 2011, dated 2015).

Test: Moisture Sorption Gravimetric Analysis (SGA), hygroscopicity
Assay type: physicochemical
Conditions: isothermal 25° C., 5 to 95 % RH
Protocol: Moisture Sorption Gravimetric Analysis (SGA). Utilizing a dynamic SGA100 from VTI, adsorption and desorption profiles were obtained with the following conditions: 1) Isothermal @ 25° C.; 2) Maximum Equilibration Time of 10 minutes; 3) 0.0010 wt % in 5 minutes; and 4) % RH (Relative Humidity) Steps of 5 to 95, and 95 to 5 @ 5% increments.

Structure (SMILES) | hygroscopicity
CO/N=C1\C[C@]2(C[C@@H]3C[C@@H](C/C=C(\C)C[C@@H](C)/C=C/C=C4\CO[C@@H]5[C@H](O)C(C)=C[C@@H](C(=O)O3)[C@]45O)O2)O[C@H](/C(C)=C/C(C)C)[C@H]1C [Crystalline moxidectin, moxidectin] | almost non-hygroscopic
CO/N=C1\C[C@]2(C[C@@H]3C[C@@H](C/C=C(\C)C[C@@H](C)/C=C/C=C4\CO[C@@H]5[C@H](O)C(C)=C[C@@H](C(=O)O3)[C@]45O)O2)O[C@H](/C(C)=C/C(C)C)[C@H]1C [amorphous moxidectin, moxidectin] | slightly hygroscopic
